Laboratory results reported in patent US20260209180A1, “PROTEASE INHIBITORS FOR TREATING OR PREVENTING CORONAVIRUS INFECTION” (Merck Sharp & Dohme LLC, priority 2023, published 2026).

target: SARS2 coronavirus 3CL protease (Severe acute respiratory syndrome coronavirus 2, UniProt P0DTD1); test: SARS2 Coronavirus 3CL Protease Assay (FRET); assay type: biochemical; conditions: 5 nM protease pre-incubated with compound 30 minutes; 15 uM peptide substrate; 4 h room temperature; read-out: FRET Potency (nM); IC50 values in the SARS2 3CLPro FRET assay
Method: The enzymatic activity of SARS2 coronavirus 3CL protease was determined in a FRET (fluorescence resonance energy transfer)-based assay measuring the cleavage of a peptide substrate by recombinantly expressed and purified enzyme. Cleavage of the peptide SEQ ID NO: 1 (CPC Scientific) by SARS2 3CL protease was measured in reaction buffer (50 mM Hepes pH 7.5, 0.01% Triton X-100, 0.01% BSA, 2 mM DTT). […] Room temperature reactions (4 h) were quenched by addition of a high dose of inhibitor and read on an appropriate plate reader (excitation wavelength=495 nm, emission wavelength=520 nm). Data were analyzed by a standard 4 parameter fit to determine IC50 values.

Structure (SMILES) | IC50 [nM]
CNC(=O)C(=O)[C@H](CCC(C)(F)F)NC(=O)c1cc(Cl)ccc1NC(=O)C1CN(C)C1 [Example 50, N-[4-chloro-2-[[(1S)-4,4-difluoro-1-[2-(methylamino)-2-oxo-acetyl]pentyl]carbamoyl]phenyl]-1-methyl-azetidine-3-carboxamide] | 21.8
CNC(=O)C(=O)[C@H](CCC(C)(F)F)NC(=O)c1cc(Cl)ccc1NC(=O)C(C)C [Example 58, 5-chloro-N-[(1S)-4,4-difluoro-1-[2-(methylamino)-2-oxo-acetyl]pentyl]-2-(2-methylpropanoylamino) benzamide] | 6.2
CNC(=O)C(=O)[C@H](CCC(C)(F)F)NC(=O)c1cc(Cl)cnc1NC(=O)C12CC(C(F)(F)F)(C1)C2 [Example 2, (S)-5-chloro-N-(6,6-difluoro-1-(methylamino)-1,2-dioxoheptan-3-yl)-2-(3-(trifluoromethyl)bicyclo[1.1.1]pentane-1-carboxamido)nicotinamide] | 11.6
Cc1cnc(NC(=O)c2cccc(C(F)(F)F)c2)c(C(=O)N[C@@H](CCC(C)(F)F)C(=O)C(=O)NC2CC2)c1 [Example 45, N-[(1S)-1-[2-(cyclopropylamino)-2-oxo-acetyl]-4,4-difluoro-pentyl]-5-methyl-2-[[3-(trifluoromethyl)benzoyl]amino]pyridine-3-carboxamide] | 76.2
CNC(=O)C(=O)[C@H](CCC(C)(F)F)NC(=O)c1cc(Cl)ccc1NC(=O)[C@@H]1CCc2nccc(=O)n21 [Example 25, (6S)-N-[4-chloro-2-[[(1S)-4,4-difluoro-1-[2-(methylamino)-2-oxo-acetyl]pentyl]carbamoyl]phenyl]-4-oxo-7,8-dihydro-6H-pyrrolo[1,2-a]pyrimidine-6-carboxamide] | 14.8
CC(F)(F)CC[C@H](NC(=O)c1cc(Cl)ccc1NC(=O)CCC(F)(F)F)C(=O)C(N)=O [Example 53, 5-chloro-N-[(1S)-4,4-difluoro-1-oxamoyl-pentyl]-2-(4,4,4-trifluorobutanoylamino) benzamide] | 97.5
CNC(=O)C(=O)[C@H](CCC(C)(F)F)NC(=O)c1cc(Cl)ccc1NC(=O)C1CC1C(F)(F)F (stereo partly drawn) [Example 47, 5-chloro-N-[(1S)-4,4-difluoro-1-[2-(methylamino)-2-oxo-acetyl]pentyl]-2-[[2-(trifluoromethyl)cyclopropane-carbonyl]amino]benzamide] | 20.5
CC(F)(F)CC[C@H](NC(=O)c1cc(Cl)ccc1NC(=O)c1cccc(C(F)(F)F)c1)C(=O)C(=O)NC1CC1 [Example 12, 5-chloro-N-[(1S)-1-[2-(cyclopropylamino)-2-oxo-acetyl]-4.4-difluoro-pentyl]-2-[[3-(trifluoromethyl)benzoyl]amino]benzamide] | 7.9
CNC(=O)C(=O)[C@H](CCC(C)(F)F)NC(=O)c1cc(C#N)ccc1NC(=O)C12CC(C(F)(F)F)(C1)C2 [Example 37, N-[4-cyano-2-[[(1S)-4,4-difluoro-1-[2-(methylamino)-2-oxo-acetyl]pentyl]carbamoyl]phenyl]-3-(trifluoromethyl)bicyclo[1.1.1] pentane-1-carboxamide] | 31.1
CNC(=O)C(=O)[C@H](CCC(C)(F)F)NC(=O)c1cc(F)cnc1NC(=O)c1cccc(F)c1 [Example 34, N-[(1S)-4,4-difluoro-1-[2-(methylamino)-2-oxo-acetyl]pentyl]-5-fluoro-2-[(3-fluorobenzoyl)amino]pyridine-3-carboxamide] | 23.8
CNC(=O)C(=O)[C@H](CCC(C)(F)F)NC(=O)c1cc(Cl)ccc1NC(=O)C1(C(F)(F)F)CC1 [Example 20, 5-chloro-N-[(1S)-4,4-difluoro-1-[2-(methylamino)-2-oxo-acetyl]pentyl]-2-[[1-(trifluoromethyl)cyclopropane-carbonyl]amino]benzamide] | 11.6
CNC(=O)C(=O)[C@H](CCC(C)(F)F)NC(=O)c1cc(Cl)ccc1NC(=O)C1CC12CC2 (single isomer, unassigned) [Example 19] | 10.5
CNC(=O)C(=O)[C@H](CCC(C)(F)F)NC(=O)c1cc(F)ccc1NC(=O)C1(C(F)(F)F)CC1 [Example 42, N-[(1S)-4,4-difluoro-1-[2-(methylamino)-2-oxo-acetyl]pentyl]-5-fluoro-2-[[1-(trifluoromethyl)cyclopropane-carbonyl]amino]benzamide] | 47
CNC(=O)C(=O)[C@H](CCC(C)(F)F)NC(=O)c1cc(Cl)ccc1NC(=O)c1cccc(C(F)(F)F)n1 [Example 17, N-[4-chloro-2-[[(1S)-4,4-difluoro-1-[2-(methylamino)-2-oxo-acetyl]pentyl]carbamoyl]phenyl]-6-(trifluoromethyl)pyridine-2-carboxamide] | 8.7
CNC(=O)C(=O)[C@H](CCC(C)(F)F)NC(=O)c1cc(Cl)ccc1NC(=O)C1CCOCC1 [Example 16, N-[4-chloro-2-[[(1S)-4,4-difluoro-1-[2-(methylamino)-2-oxo-acetyl]pentyl]carbamoyl]phenyl] tetrahydropyran-4-carboxamide] | 8.5
CNC(=O)C(=O)[C@H](CCC(C)(F)F)NC(=O)c1cc(Cl)ccc1NC(=O)C1CC1C(F)(F)F (stereo partly drawn) [Example 32, 5-chloro-N-[(1S)-4,4-difluoro-1-[2-(methylamino)-2-oxo-acetyl]pentyl]-2-[[2-(trifluoromethyl)cyclopropane-carbonyl]amino]benzamide] | 21.3
CNC(=O)C(=O)[C@H](CCC(C)(F)F)NC(=O)c1cc(Cl)cnc1NC(=O)c1cccc(F)c1 [Example 24, 5-chloro-N-[(1S)-4,4-difluoro-1-[2-(methylamino)-2-oxo-acetyl]pentyl]-2-[(3-fluorobenzoyl)amino]pyridine-3-carboxamide] | 14
CNC(=O)C(=O)[C@H](CCC(C)(F)F)NC(=O)c1cc(Cl)cnc1NC(=O)OC [Example 56, methyl N-[5-chloro-3-[[(1S)-4,4-difluoro-1-[2-(methylamino)-2-oxo-acetyl]pentyl]carbamoyl]-2-pyridyl]carbamate] | 4.2
CNC(=O)C(=O)[C@H](CCC(C)(F)F)NC(=O)c1cc(Cl)ccc1NC(=O)c1cccnc1 [Example 52] | 15.6
CNC(=O)C(=O)[C@H](CCC(C)(F)F)NC(=O)c1cc(Cl)ccc1NC(=O)C1CC12CCOCC2 (stereo partly drawn) [Example 26, N-[4-chloro-2-[[(1S)-4,4-difluoro-1-[2-(methylamino)-2-oxo-acetyl]pentyl]carbamoyl]phenyl]-6-oxaspiro[2.5]octane-2-carboxamide] | 15.1
